These results are taken from patent publication US11999727B2 (Tango Therapeutics, Inc., priority 2020, dated 2024).

Some results are limits rather than exact numbers.

Experiment [1] deals with T1, PRMT5 (Homo sapiens, UniProt O14744).
T1 construct: purchased Viva (custom protein)
The experiment in a line: PRMT5 biochemical IC50 assay with SAM as cofactor. As to conditions: PRMT5, SAM as cofactor; read-out: SAM IC50.

For experiment [2], the system named is HAP1 MTAP-intact cell line. Put plainly: SDMA in-cell western assay, HAP1 MTAP-intact. The format is cell-based. The following applies: Homo sapiens, HAP1, SDMA in-cell western, HAP1 MTAP-intact; read-out: MTAP HAP1 intact IC50. The procedure, abridged: (§1)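 Isogenic HAP1 pair: the MTAP-intact line expresses endogenous MTAP, and the deleted line is MTAP-null. Symmetric dimethylarginine was detected by in-cell western and IC50 values derived for each line.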

Experiment [3] concerns the target T1, PRMT5. Put plainly: PRMT5 biochemical IC50 assay with no cofactor. The following applies: PRMT5, no cofactor; read-out: No Cofactor/rel IC50. The text has this: Table 1 indicates IC50 values (μM) against PRMT5 for exemplary compounds in the presence of SAM as cofactor, with no cofactor, and with MTA as cofactor, respectively (columns 4-6). […] Ki values can be calculated from the IC50 values as described in the Examples section. As detailed in the Examples section, for the assay performed in the presence of SAM, IC50=Ki×1.5 (Ki=IC50/1.5).

Experiment [4] deals with HAP1 MTAP-deleted cell line. The experiment in a line: SDMA in-cell western assay, HAP1 MTAP-deleted. The experiment is classed as cell-based. As to conditions: for IC50: Homo sapiens, HAP1, SDMA in-cell western, HAP1 MTAP-deleted, read-out: HAP 1 MTAP deleted IC50; for MTAP intact/deleted ratio: IC50 ratio HAP1 MTAP-intact / HAP1 MTAP-deleted, SDMA in-cell western. The procedure, abridged:
as §1

For experiment [5], the target named is T1, PRMT5. Put plainly: PRMT5 biochemical IC50 assay with MTA as cofactor. As to conditions: PRMT5, MTA as cofactor; read-out: MTA IC50.
In experiment [6] the test system is HAP1 MTAP-deleted cell line. The experiment in a line: Viability assay, MTAP-deleted cell line. The following applies: Homo sapiens, HAP1, viability assay, MTAP-deleted cell line; read-out: HAP1 MTAP deleted viability. The experiment is classed as cell-based. The text has this:
Table 1 additionally indicates IC50 values in a viability assay for the MTAP-deleted cell line (column 10), indicating the effect of treatment with compound on cell survival.

T1 sequence (O14744 whole entry): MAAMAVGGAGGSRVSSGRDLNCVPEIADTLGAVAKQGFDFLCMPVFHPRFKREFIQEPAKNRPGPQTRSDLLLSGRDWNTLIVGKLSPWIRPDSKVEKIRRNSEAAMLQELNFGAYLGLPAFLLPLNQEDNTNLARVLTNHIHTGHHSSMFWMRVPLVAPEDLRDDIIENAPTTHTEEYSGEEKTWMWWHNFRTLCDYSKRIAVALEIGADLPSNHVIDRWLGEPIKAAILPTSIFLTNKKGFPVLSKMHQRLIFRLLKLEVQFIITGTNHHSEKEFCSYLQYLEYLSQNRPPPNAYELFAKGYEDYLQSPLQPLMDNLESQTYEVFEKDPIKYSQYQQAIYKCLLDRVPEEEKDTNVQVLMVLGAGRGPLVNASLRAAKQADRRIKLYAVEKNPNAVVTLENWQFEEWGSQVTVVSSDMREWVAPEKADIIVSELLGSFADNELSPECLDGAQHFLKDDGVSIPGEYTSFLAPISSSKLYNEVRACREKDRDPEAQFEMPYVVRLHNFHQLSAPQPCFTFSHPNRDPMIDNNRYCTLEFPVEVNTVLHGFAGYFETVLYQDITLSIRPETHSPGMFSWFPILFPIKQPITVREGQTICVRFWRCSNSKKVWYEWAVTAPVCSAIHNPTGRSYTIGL
T1 sequence (Q9BQA1 whole entry partner): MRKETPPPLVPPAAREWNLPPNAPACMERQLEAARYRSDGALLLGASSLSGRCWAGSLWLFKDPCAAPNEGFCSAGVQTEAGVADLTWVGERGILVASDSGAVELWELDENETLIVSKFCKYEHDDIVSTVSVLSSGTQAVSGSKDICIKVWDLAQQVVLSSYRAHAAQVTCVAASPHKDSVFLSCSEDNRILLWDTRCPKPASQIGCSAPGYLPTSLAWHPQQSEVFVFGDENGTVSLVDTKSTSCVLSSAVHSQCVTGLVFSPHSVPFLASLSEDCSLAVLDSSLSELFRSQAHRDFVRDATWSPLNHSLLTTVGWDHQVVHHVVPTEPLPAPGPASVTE

As to `C[C@H]1CC[C@H](c2cn[nH]c2)N(C(=O)C(=O)Nc2cncc(C(N)=O)c2)C1` (single isomer, unassigned) [Compound 942], the IC50 was 50 to 500 nM on PRMT5 [1]; over 1000 nM in experiment [2]; 50 to 500 nM on PRMT5 [3]; 100 to 1000 nM in experiment [4]; under 50 nM on PRMT5 [5]; over 10000 nM in experiment [6]. Moreover, the MTAP intact/deleted ratio entry in experiment [4] is “A (an IC50 ratio greater than or equal to 10 fold)”.
As for `C[C@@H]1CC[C@@H](c2cc3cn[nH]c3s2)N(C(=O)C(=O)Nc2cncc(C(N)=O)c2)C1` (single isomer, unassigned) [Compound 943, 5-(2-(5-methyl-2-(1H-thieno[2,3-c]pyrazol-5-yl)piperidin-1-yl)-2-oxoacetamido)nicotinamide], the IC50 on PRMT5 [1] is 50 to 500 nM; in experiment [2], 100 to 1000 nM; at PRMT5 [3] it was under 50 nM; in experiment [4], under 100 nM; on PRMT5 [5] it was under 50 nM; in experiment [6], under 1000 nM. Besides, in experiment [4], the MTAP intact/deleted ratio result is listed as “A (an IC50 ratio greater than or equal to 10 fold)”.
With `Cc1ccc([C@@H]2CC(F)(F)[C@@H](C)CN2C(=O)C(=O)Nc2cnc(N)c(C)c2)cn1` (single isomer, unassigned) [Compound 944], the IC50 at PRMT5 [1] is over 500 nM; in experiment [2], over 1000 nM; at PRMT5 [3], over 500 nM; in experiment [4], over 1000 nM; on PRMT5 [5], over 500 nM; in experiment [6], over 10000 nM. The MTAP intact/deleted ratio result in experiment [4] is listed as “C (an IC50 ratio of less than 3 fold)”.
Take `COc1ncc(NC(=O)C(=O)N2C[C@@H](C)CC[C@@H]2c2cc(Cl)cc(Cl)c2)cc1C(N)=O` (single isomer, unassigned) [Compound 945]: the IC50 was 50 to 500 nM at PRMT5 [1]; over 1000 nM in experiment [2]; 50 to 500 nM at PRMT5 [3]; under 100 nM in experiment [4]; under 50 nM on PRMT5 [5]; 1000 to 10000 nM in experiment [6]. Further, the MTAP intact/deleted ratio result in experiment [4] is given as “A (an IC50 ratio greater than or equal to 10 fold)”.
On to `Cc1ccc([C@@H]2CC(F)(F)[C@@H](C)CN2C(=O)C(=O)Nc2cncc(C(N)=O)c2)cn1` (single isomer, unassigned) [Compound 946], for which the IC50 was over 500 nM at PRMT5 [1]; over 1000 nM in experiment [2]; over 500 nM at PRMT5 [3]; over 1000 nM in experiment [4]; over 500 nM at PRMT5 [5]; over 10000 nM in experiment [6]. Besides, the MTAP intact/deleted ratio entry in experiment [4] is “B (an IC50 ratio greater than or equal to 3 fold but lower than 10 fold)”.
For `Cc1nc2cc([C@H]3CC[C@H](C)CN3C(=O)C(=O)Nc3cnc(N)c(C)c3)ccc2[nH]1` (single isomer, unassigned) [Compound 947], the IC50 at PRMT5 [1] is 50 to 500 nM; in experiment [2], 100 to 1000 nM; at PRMT5 [3], 50 to 500 nM; in experiment [4] it was under 100 nM; at PRMT5 [5] it was under 50 nM; in experiment [6], under 1000 nM. Further, the MTAP intact/deleted ratio result in experiment [4] is “A (an IC50 ratio greater than or equal to 10 fold)”.
As to `Cc1cc(NC(=O)C(=O)N2C[C@H](C)CC[C@H]2c2ccc3[nH]nc(N)c3c2)cnc1C` (single isomer, unassigned) [Compound 948], the IC50 was 50 to 500 nM on PRMT5 [1]; over 1000 nM in experiment [2]; 50 to 500 nM on PRMT5 [3]; under 100 nM in experiment [4]; under 50 nM at PRMT5 [5]; under 1000 nM in experiment [6]. In addition, in experiment [4], the MTAP intact/deleted ratio result was “A (an IC50 ratio greater than or equal to 10 fold)”.
Regarding `Cc1cc(NC(=O)C(=O)N2C[C@H](C)CC[C@H]2c2cccc3[nH]cnc23)cnc1N` (single isomer, unassigned) [Compound 949], the IC50 at PRMT5 [1] was 50 to 500 nM; in experiment [2], over 1000 nM; on PRMT5 [3], 50 to 500 nM; in experiment [4] it was 100 to 1000 nM; on PRMT5 [5], under 50 nM; in experiment [6] it was 1000 to 10000 nM. Further, the MTAP intact/deleted ratio entry in experiment [4] was “A (an IC50 ratio greater than or equal to 10 fold)”.
Regarding `COc1ncc(NC(=O)C(=O)N2C[C@H](C)CC[C@H]2c2cc3cn[nH]c3s2)cc1C(N)=O` (single isomer, unassigned) [Compound 950, 2-methoxy-5-(2-(5-methyl-2-(1H-thieno[2,3-c]pyrazol-5-yl)piperidin-1-yl)-2-oxoacetamido)nicotinamide], the IC50 on PRMT5 [1] is over 500 nM; in experiment [2], over 1000 nM; at PRMT5 [3], over 500 nM; in experiment [4] it was over 1000 nM; at PRMT5 [5] it was over 500 nM; in experiment [6] it was over 10000 nM. Besides, the MTAP intact/deleted ratio entry in experiment [4] was “B (an IC50 ratio greater than or equal to 3 fold but lower than 10 fold)”.
Consider `CCc1cc(NC(=O)C(=O)N2C[C@@H](C)CC[C@@H]2c2cc(Cl)cc(Cl)c2)cnc1N` (single isomer, unassigned) [Compound 951], for which the IC50 was 50 to 500 nM on PRMT5 [1]; over 1000 nM in experiment [2]; under 50 nM at PRMT5 [3]; under 100 nM in experiment [4]; under 50 nM on PRMT5 [5]; 1000 to 10000 nM in experiment [6]. For the same molecule, the MTAP intact/deleted ratio result in experiment [4] is “A (an IC50 ratio greater than or equal to 10 fold)”.
On to `COc1ncc(NC(=O)C(=O)N2C[C@H](C)CC[C@H]2c2cc3[nH]ncc3s2)cc1C(N)=O` (single isomer, unassigned) [Compound 952, 2-methoxy-5-(2-(5-methyl-2-(1H-thieno[3,2-c]pyrazol-5-yl)piperidin-1-yl)-2-oxoacetamido)nicotinamide], for which the IC50 is over 500 nM on PRMT5 [1]; over 1000 nM in experiment [2]; over 500 nM on PRMT5 [3]; over 1000 nM in experiment [4]; over 500 nM on PRMT5 [5]; over 10000 nM in experiment [6]. The MTAP intact/deleted ratio result in experiment [4] is recorded as “B (an IC50 ratio greater than or equal to 3 fold but lower than 10 fold)”.
For `Cc1cc(NC(=O)C(=O)N2C[C@H](C)CC[C@H]2c2ccc3c(=O)[nH]ccc3c2)cnc1N` (single isomer, unassigned) [Compound 953], the IC50 is over 500 nM on PRMT5 [1]; over 1000 nM in experiment [2]; over 500 nM at PRMT5 [3]; 100 to 1000 nM in experiment [4]; 50 to 500 nM at PRMT5 [5]; over 10000 nM in experiment [6]. Also, the MTAP intact/deleted ratio entry in experiment [4] is listed as “A (an IC50 ratio greater than or equal to 10 fold)”.
In the case of `CCc1cc(NC(=O)C(=O)N2C[C@H](C)CC[C@H]2c2cc3[nH]ncc3s2)cnc1N` (single isomer, unassigned) [Compound 955], the IC50 at PRMT5 [1] was 50 to 500 nM; in experiment [2], 100 to 1000 nM; on PRMT5 [3] it was under 50 nM; in experiment [4] it was under 100 nM; at PRMT5 [5], under 50 nM; in experiment [6], under 1000 nM. Also, in experiment [4], the MTAP intact/deleted ratio result was “A (an IC50 ratio greater than or equal to 10 fold)”.
Take `Cc1cc(NC(=O)C(=O)N2C[C@H](C)CC[C@H]2c2ccc3sc(C(F)(F)F)nc3c2)cnc1N` (single isomer, unassigned) [Compound 959]: the IC50 on PRMT5 [1] was over 500 nM; in experiment [2], over 1000 nM; at PRMT5 [3] it was over 500 nM; in experiment [4] it was over 1000 nM; on PRMT5 [5], over 500 nM; in experiment [6] it was over 10000 nM. Besides, the MTAP intact/deleted ratio result in experiment [4] is “B (an IC50 ratio greater than or equal to 3 fold but lower than 10 fold)”.
Consider `Cc1cc(NC(=O)C(=O)N2C[C@H](C)CC[C@H]2c2cccc3scnc23)cnc1N` (single isomer, unassigned) [Compound 960], for which the IC50 is 50 to 500 nM on PRMT5 [1]; over 1000 nM in experiment [2]; 50 to 500 nM on PRMT5 [3]; 100 to 1000 nM in experiment [4]; under 50 nM on PRMT5 [5]; 1000 to 10000 nM in experiment [6]. In addition, in experiment [4], the MTAP intact/deleted ratio result was “A (an IC50 ratio greater than or equal to 10 fold)”.
Turning to `Cc1cc(NC(=O)C(=O)N2C[C@@H](C)CC[C@@H]2c2ccc3c(=O)[nH]ccc3c2)cnc1N` (single isomer, unassigned) [Compound 961], the IC50 at PRMT5 [1] is over 500 nM; in experiment [2], over 1000 nM; at PRMT5 [3], 50 to 500 nM; in experiment [4] it was under 100 nM; at PRMT5 [5] it was under 50 nM; in experiment [6], 1000 to 10000 nM. Further, the MTAP intact/deleted ratio result in experiment [4] is given as “A (an IC50 ratio greater than or equal to 10 fold)”.
With `Cc1cc(NC(=O)C(=O)N2C[C@H](C)CC[C@H]2c2cccc3c2CCN3)cnc1N` (single isomer, unassigned) [Compound 962], the IC50 was 50 to 500 nM at PRMT5 [1]; over 1000 nM in experiment [2]; 50 to 500 nM at PRMT5 [3]; 100 to 1000 nM in experiment [4]; under 50 nM at PRMT5 [5]; 1000 to 10000 nM in experiment [6]. Also, the MTAP intact/deleted ratio result in experiment [4] is “A (an IC50 ratio greater than or equal to 10 fold)”.
